# Laboratory results taken from PubChem BioAssay (NCI).
#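 Dose response: 5 concentrations. Exposure: 48 h. Format: 96-well plates. Endpoint: linear interpolation; highest concentration if not reached. Definition used: TGI = concentration required for complete inhibition of growth.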
# Legend:
# Test in all cases: NCI-60 cell line screen, 48 h
# MDA-MB-231 breast = system: MDA-MB-231 breast
# HL-60(TB) leukemia = system: HL-60(TB) leukemia
# HCT-15 colon = system: HCT-15 colon
# UACC-62 melanoma = system: UACC-62 melanoma
# SF-268 CNS = system: SF-268 CNS
# KM12 colon = system: KM12 colon
# SF-295 CNS = system: SF-295 CNS
# T-47D breast = system: T-47D breast
# UO-31 renal = system: UO-31 renal
# RPMI-8226 leukemia = system: RPMI-8226 leukemia
# BT-549 breast = system: BT-549 breast
# OVCAR-8 ovarian = system: OVCAR-8 ovarian
# UACC-257 melanoma = system: UACC-257 melanoma
# MALME-3M melanoma = system: MALME-3M melanoma
# K-562 leukemia = system: K-562 leukemia
# SR leukemia = system: SR leukemia
# SW-620 colon = system: SW-620 colon
# HS 578T breast = system: HS 578T breast
# SK-MEL-5 melanoma = system: SK-MEL-5 melanoma
# SK-MEL-2 melanoma = system: SK-MEL-2 melanoma
# U251 CNS = system: U251 CNS
# CCRF-CEM leukemia = system: CCRF-CEM leukemia
# 786-0 renal = system: 786-0 renal
# MOLT-4 leukemia = system: MOLT-4 leukemia
# NCI/ADR-RES ovarian = system: NCI/ADR-RES ovarian
# PC-3 prostate = system: PC-3 prostate
# SK-OV-3 ovarian = system: SK-OV-3 ovarian
# SF-539 CNS = system: SF-539 CNS
# NCI-H23 lung = system: NCI-H23 lung
# ACHN renal = system: ACHN renal
# OVCAR-5 ovarian = system: OVCAR-5 ovarian
# DU-145 prostate = system: DU-145 prostate
# SNB-19 CNS = system: SNB-19 CNS
# SN12C renal = system: SN12C renal
# CAKI-1 renal = system: CAKI-1 renal
# A498 renal = system: A498 renal
# RXF 393 renal = system: RXF 393 renal
# HOP-62 NSCLC = system: HOP-62 NSCLC
# M14 melanoma = system: M14 melanoma
# NCI-H226 lung = system: NCI-H226 lung
# MCF7 breast = system: MCF7 breast
# LOX IMVI melanoma = system: LOX IMVI melanoma
# MDA-MB-435 = system: MDA-MB-435
# HCT-116 colon = system: HCT-116 colon
# TK-10 renal = system: TK-10 renal
# MDA-N = system: MDA-N
# COLO 205 colon = system: COLO 205 colon
# SNB-75 CNS = system: SNB-75 CNS
# OVCAR-3 ovarian = system: OVCAR-3 ovarian
# EKVX NSCLC = system: EKVX NSCLC
# IGROV1 ovarian = system: IGROV1 ovarian
# NCI-H460 lung = system: NCI-H460 lung
# SK-MEL-28 melanoma = system: SK-MEL-28 melanoma
# OVCAR-4 ovarian = system: OVCAR-4 ovarian
# HOP-92 NSCLC = system: HOP-92 NSCLC
# HT29 colon = system: HT29 colon
# NCI-H522 lung = system: NCI-H522 lung
# A549 NSCLC = system: A549 NSCLC
# HCC-2998 colon = system: HCC-2998 colon
compound,measurement,setting,value
CNC(=O)C1OC(n2cnc3c(NCc4cccc(I)c4)nc(Cl)nc32)C(O)C1O (stereo not given),TGI,MDA-MB-231 breast,66.6 µM
same,TGI,HL-60(TB) leukemia,> 100 µM
same,TGI,HCT-15 colon,20.4 µM
same,TGI,UACC-62 melanoma,24 µM
same,TGI,SF-268 CNS,23.5 µM
same,TGI,KM12 colon,24.3 µM
same,TGI,SF-295 CNS,40.4 µM
same,TGI,T-47D breast,61.8 µM
same,TGI,UO-31 renal,24.6 µM
same,TGI,RPMI-8226 leukemia,> 100 µM
same,TGI,BT-549 breast,28.5 µM
same,TGI,OVCAR-8 ovarian,26.7 µM
same,TGI,UACC-257 melanoma,23.8 µM
same,TGI,MALME-3M melanoma,19.6 µM
same,TGI,K-562 leukemia,> 100 µM
same,TGI,SR leukemia,59.6 µM
same,TGI,SW-620 colon,51.6 µM
same,TGI,HS 578T breast,18.7 µM
same,TGI,SK-MEL-5 melanoma,42.2 µM
same,TGI,SK-MEL-2 melanoma,27.8 µM
same,TGI,U251 CNS,40.4 µM
same,TGI,CCRF-CEM leukemia,76.6 µM
same,TGI,786-0 renal,46.8 µM
same,TGI,MOLT-4 leukemia,53.3 µM
same,TGI,NCI/ADR-RES ovarian,24 µM
same,TGI,PC-3 prostate,24.1 µM
same,TGI,SK-OV-3 ovarian,35 µM
same,TGI,SF-539 CNS,23 µM
same,TGI,NCI-H23 lung,25.5 µM
same,TGI,ACHN renal,24 µM
same,TGI,OVCAR-5 ovarian,27 µM
same,TGI,DU-145 prostate,50.4 µM
same,TGI,SNB-19 CNS,24.9 µM
same,TGI,SN12C renal,41 µM
same,TGI,CAKI-1 renal,40.7 µM
same,TGI,A498 renal,33.7 µM
same,TGI,RXF 393 renal,29.6 µM
same,TGI,HOP-62 NSCLC,25.2 µM
same,TGI,M14 melanoma,21.9 µM
same,TGI,NCI-H226 lung,23 µM
same,TGI,MCF7 breast,25.4 µM
same,TGI,LOX IMVI melanoma,27.2 µM
same,TGI,MDA-MB-435,27 µM
same,TGI,HCT-116 colon,41.7 µM
same,TGI,TK-10 renal,29.8 µM
same,TGI,MDA-N,55.4 µM
same,TGI,COLO 205 colon,82.6 µM
same,TGI,SNB-75 CNS,16.5 µM
same,TGI,OVCAR-3 ovarian,25.7 µM
same,TGI,EKVX NSCLC,31.5 µM
same,TGI,IGROV1 ovarian,27.2 µM
CC1C(c2ccccc2)NC(c2ccccc2)CC1(N)C#N (stereo not given),TGI,NCI-H460 lung,> 100 µM
same,TGI,MDA-MB-231 breast,> 100 µM
same,TGI,HL-60(TB) leukemia,> 100 µM
same,TGI,HCT-15 colon,> 100 µM
same,TGI,UACC-62 melanoma,> 100 µM
same,TGI,SF-268 CNS,> 100 µM
same,TGI,KM12 colon,> 100 µM
same,TGI,SF-295 CNS,> 100 µM
same,TGI,T-47D breast,> 100 µM
same,TGI,UO-31 renal,> 100 µM
same,TGI,SK-MEL-28 melanoma,> 100 µM
same,TGI,BT-549 breast,> 100 µM
same,TGI,OVCAR-8 ovarian,> 100 µM
same,TGI,UACC-257 melanoma,> 100 µM
same,TGI,K-562 leukemia,> 100 µM
same,TGI,SR leukemia,> 100 µM
same,TGI,SW-620 colon,> 100 µM
same,TGI,HS 578T breast,> 100 µM
same,TGI,SK-MEL-5 melanoma,> 100 µM
same,TGI,U251 CNS,> 100 µM
same,TGI,CCRF-CEM leukemia,> 100 µM
same,TGI,786-0 renal,> 100 µM
same,TGI,MOLT-4 leukemia,> 100 µM
same,TGI,NCI/ADR-RES ovarian,> 100 µM
same,TGI,OVCAR-4 ovarian,> 100 µM
same,TGI,PC-3 prostate,> 100 µM
same,TGI,SK-OV-3 ovarian,> 100 µM
same,TGI,SF-539 CNS,> 100 µM
same,TGI,NCI-H23 lung,> 100 µM
same,TGI,HOP-92 NSCLC,> 100 µM
same,TGI,HT29 colon,> 100 µM
same,TGI,ACHN renal,> 100 µM
same,TGI,OVCAR-5 ovarian,> 100 µM
same,TGI,DU-145 prostate,> 100 µM
same,TGI,NCI-H522 lung,> 100 µM
same,TGI,SNB-19 CNS,> 100 µM
same,TGI,SN12C renal,> 100 µM
same,TGI,CAKI-1 renal,> 100 µM
same,TGI,RXF 393 renal,> 100 µM
same,TGI,HOP-62 NSCLC,> 100 µM
same,TGI,M14 melanoma,> 100 µM
same,TGI,NCI-H226 lung,> 100 µM
same,TGI,MCF7 breast,> 100 µM
same,TGI,LOX IMVI melanoma,> 100 µM
same,TGI,A549 NSCLC,> 100 µM
same,TGI,MDA-MB-435,> 100 µM
same,TGI,HCT-116 colon,> 100 µM
same,TGI,TK-10 renal,> 100 µM
same,TGI,MDA-N,> 100 µM
same,TGI,HCC-2998 colon,> 100 µM
same,TGI,COLO 205 colon,> 100 µM
same,TGI,SNB-75 CNS,> 100 µM
same,TGI,OVCAR-3 ovarian,> 100 µM
same,TGI,EKVX NSCLC,> 100 µM
same,TGI,IGROV1 ovarian,> 100 µM
O=[N+]([O-])c1ccc2nc(-c3ccc(Cl)cc3)[nH]c2c1,TGI,NCI-H460 lung,45.4 µM
same,TGI,MDA-MB-231 breast,81.5 µM
same,TGI,HCT-15 colon,29.1 µM
same,TGI,UACC-62 melanoma,42 µM
same,TGI,SF-268 CNS,37.5 µM
same,TGI,SF-295 CNS,42.7 µM
same,TGI,T-47D breast,55.7 µM
same,TGI,UO-31 renal,59.7 µM
same,TGI,RPMI-8226 leukemia,57.4 µM
same,TGI,SK-MEL-28 melanoma,> 100 µM
same,TGI,BT-549 breast,64.6 µM
same,TGI,OVCAR-8 ovarian,> 100 µM
same,TGI,UACC-257 melanoma,43.2 µM
same,TGI,MALME-3M melanoma,63 µM
same,TGI,SR leukemia,79.9 µM
same,TGI,SW-620 colon,> 100 µM
same,TGI,HS 578T breast,71.7 µM
same,TGI,SK-MEL-5 melanoma,29.7 µM
same,TGI,786-0 renal,> 100 µM
same,TGI,MOLT-4 leukemia,> 100 µM
same,TGI,NCI/ADR-RES ovarian,57.6 µM
same,TGI,OVCAR-4 ovarian,> 100 µM
same,TGI,PC-3 prostate,63.6 µM
same,TGI,SK-OV-3 ovarian,60.4 µM
same,TGI,SF-539 CNS,39.6 µM
same,TGI,NCI-H23 lung,> 100 µM
same,TGI,HOP-92 NSCLC,64.2 µM
same,TGI,HT29 colon,32.8 µM
same,TGI,ACHN renal,67.9 µM
same,TGI,DU-145 prostate,60.5 µM
same,TGI,NCI-H522 lung,30.5 µM
same,TGI,SNB-19 CNS,80.1 µM
same,TGI,SN12C renal,> 100 µM
same,TGI,CAKI-1 renal,93.9 µM
same,TGI,HOP-62 NSCLC,40.1 µM
same,TGI,M14 melanoma,34.5 µM
same,TGI,NCI-H226 lung,58 µM
same,TGI,MCF7 breast,62.8 µM
same,TGI,LOX IMVI melanoma,35.3 µM
same,TGI,A549 NSCLC,70.5 µM
same,TGI,MDA-MB-435,46.8 µM
same,TGI,HCT-116 colon,32 µM
same,TGI,TK-10 renal,72.5 µM
same,TGI,MDA-N,51.1 µM
same,TGI,COLO 205 colon,30.7 µM
same,TGI,SNB-75 CNS,68.5 µM
same,TGI,OVCAR-3 ovarian,89.3 µM
same,TGI,EKVX NSCLC,40.3 µM
same,TGI,IGROV1 ovarian,89.5 µM
